Assay results taken from US4939171A, “Sebosuppressive topical preparations” (Henkel Kommanditgesellschaft auf Aktien, priority 1987, dated 1990).

Columns and labels:
[1] = test system: sebum; assay: Testing and evaluation of the antiseborrhoeic effect: percentage sebum reduction from browning of the backs of male rats; assay type: in vivo; conditions: Rattus norvegicus, 336 h, topical, male Wistar rats, 9 applications in 2 weeks; for inhibition in vivo at 0.01 % strength: Concentration 0.01 % by weight; for inhibition in vivo at 0.05 % strength: Concentration 0.05 % by weight; for inhibition in vivo at 0.001 % strength: Concentration 0.001 % by weight; for inhibition in vivo at 0.005 % strength: Concentration 0.005 % by weight; for inhibition in vivo at 0.5 % strength: Concentration 0.5 % by weight; for inhibition in vivo at 0.02 % strength: Concentration 0.02 % by weight; for inhibition in vivo at 0.1 % strength: Concentration 0.1 % by weight
Source text: The test is based on the observation that male rats secrete a brownish sebum so that the degree of greasiness of the skin may readily be visually assessed as browning of the skin. […] At the same time, only very small quantities of lipids can be extracted from the hair cut off; cf. J Soc. Cosmet. Chem. 34, 127-135 (1983)).
Male Wistar rats having a body mass of 220 to 230 grams at the beginning of the test were used as the test animals. The test substances, dissolved in a mixtures of equal volumes of ethanol and acetone, were brushed onto half of the back of each of 6 rats for each substance and concentration tested. The other half of the back of each tested rat was treated with the solvent only. One application was made on each tested rat on each of Monday through Friday of one week and on each of Monday through Thursday in the next week; the rats were then evaluated on Friday of the second week. For evaluation, the rats were shaved on their backs and flanks and visually assessed independently by a panel of examiners (6 people) under double-blind conditions. The degree of browning on the backs of the rats was visually assessed as a measure of the sebum coating. A group of six rats of the same type treated on both sides with the solvent only was used for control.
The intensities of the brown color on each control rat, and on the side of each other tested rat that had been treated with a solution containing a substance to be tested for its sebosuppressive ability, were scored according to the following scale:
The sum of the scores for the six treated rats in each group was divided by the sum of the scores for the six control rats for that group, this quotient was multiplied by 100, and that result subtracted from 100, to give the percentage sebum reduction as recorded in the tables below.

[2] = test system: sebum; conditions: male rats systematically treated; cited from earlier work

## COC(=O)c1ccc(OC(C)CCC2C(C)CCCC2(C)C)cc1 (stereo not shown) [Example 1.1, 4-[4-(1,1,3-trimethyl-2-cyclohexyl)-2-butoxy]-benzoic acid methyl ester]
[1]
  inhibition in vivo at 0.01 % strength: 25%
  inhibition in vivo at 0.05 % strength: 99%

## COC(=O)C=Cc1ccc(OCC=C(C)CCC=C(C)CCC=C(C)C)cc1 [Example 1.12, 4-farnesyloxycinnamic acid methyl ester]
[1]
  inhibition in vivo at 0.05 % strength: 85%

## CC(C)=CCCC(C)=CCCC(C)=CCOc1ccc(C(=O)O)cc1 [Example 1.16, 4-farnesyloxybenzoic acid]
[1]
  inhibition in vivo at 0.01 % strength: 69%

## CC(C)=CCCC(C)=CCCC(C)=CCOc1ccc(CO)cc1 [Example 1.17, 4-farnesyloxybenzyl alcohol]
[1]
  inhibition in vivo at 0.001 % strength: 14%
  inhibition in vivo at 0.005 % strength: 72%
  inhibition in vivo at 0.01 % strength: 87%
  inhibition in vivo at 0.05 % strength: 86%
[1]; Concentration 0.002 % by weight
  inhibition in vivo at 0.002 % strength: 18%

## COC(=O)CCc1ccc(OCC=C(C)CCC=C(C)CCC=C(C)C)cc1 [Example 1.11, 3-(4-farnesyloxyphenyl)-propionic acid methyl ester]
[1]
  inhibition in vivo at 0.05 % strength: 86%

## COC(=O)C=Cc1ccc(OCC2CCCCC2)cc1 [Example 1.2, 4-cyclohexylmethoxycinnamic acid methyl ester]
[1]
  inhibition in vivo at 0.5 % strength: 29%

## O=C(O)c1ccc(OCCCC2CCCCC2)cc1 [Example 1.6, 4-(3-cyclohexylpropyloxy)-benzoic acid]
[1]
  inhibition in vivo at 0.005 % strength: 0%
  inhibition in vivo at 0.01 % strength: 52%
  inhibition in vivo at 0.02 % strength: 84%

## CC(C)=CCCC(C)=CCCC(C)=CCOc1ccc(C=CC(=O)O)cc1 [Example 1.14, 4-farnesyloxycinnamic acid]
[1]
  inhibition in vivo at 0.05 % strength: 73%

## COC(=O)c1ccc(OCCCC2CCCCC2)cc1 [Example 1.3, 4-(3-cyclohexylpropyloxy)-benzoic acid methyl ester]
[1]
  inhibition in vivo at 0.02 % strength: 0%
  inhibition in vivo at 0.05 % strength: 68%
  inhibition in vivo at 0.5 % strength: 99%

## OCC=Cc1ccc(OCC2CCCCC2)cc1 [Example 1.7, 4-cyclohexylmethoxycinnamic alcohol]
[1]
  inhibition in vivo at 0.1 % strength: 53%
  inhibition in vivo at 0.5 % strength: 66%

## COC(=O)c1ccc(OCC=C(C)CCC=C(C)CCC=C(C)C)cc1 [Example 1.8, 4-farnesyloxybenzoic acid methyl ester]
[1]
  inhibition in vivo at 0.01 % strength: 38%
  inhibition in vivo at 0.05 % strength: 86%

## CC(C)=CCCC(C)=CCCC(C)=CCOc1ccc(CCC(=O)O)cc1 [Example 1.13, 3-(4-farnesyloxyphenyl)-propionic acid]
[1]
  inhibition in vivo at 0.05 % strength: 68%

## COC(=O)c1ccc(OC/C=C(\C)CCC=C(C)C)cc1 [Example 1.9, 4-geranyloxybenzoic acid methyl ester]
[1]
  inhibition in vivo at 0.1 % strength: 40%

## CC(CCC1C(C)CCCC1(C)C)Oc1ccc(C(=O)O)cc1 (stereo not shown) [Example 1.4, 4-(4-(1,3,3-trimethyl-2-cyclohexyl)-2-butoxy)-benzoic acid]
[1]
  inhibition in vivo at 0.001 % strength: 73%
  inhibition in vivo at 0.005 % strength: 88%
  inhibition in vivo at 0.01 % strength: 93%
  inhibition in vivo at 0.05 % strength: 100%

## O=C(O)C=Cc1ccc(OCC2CCCCC2)cc1 [Example 1.5, 4-(cyclohexylmethoxy)-cinnamic acid]
[1]
  inhibition in vivo at 0.5 % strength: 15%

## C/C(=C\COc1ccc(C(=O)O)cc1)CCC[C@H](C)CCC[C@H](C)CCCC(C)C [Example 1.15, 4-phytyloxybenzoic acid]
[1]
  inhibition in vivo at 0.05 % strength: 35%

## CC#C[C@]1(O)CC[C@H]2[C@@H]3CCc4cc(O)ccc4[C@H]3CC[C@@]21C [estrogen]
[2]
  skin colour after shearing (browning by sebum): only show the normal light, pink-colored skin after shearing
